# Entries after “also recorded” stand apart in the source; their conditions may differ. Where two headings read alike, the source gives them in different places.
# Legend:
# [1] = tested on: SACs; settings: cited from earlier work
# [2] = tested on: epithelial Na^+ channels; settings: no separate reference printed; cited from earlier work
# [3] = tested on: endogenous SACs in oocytes; settings: ref Lane et al., 1991; cited from earlier work
# [4] = tested on: SACs in audiovestibular hair cells; settings: ref Jorgensen and Ohmori 1988; cited from earlier work
# [5] = tested on: swelling-activated whole-cell current in adult astrocytes; format: cell-based, rat
# [6] = tested on: swelling-activated anion current in astrocytoma cells; settings: ref Bakhramov et al. 1995; cited from earlier work
# [7] = tested on: SACs (cation-selective stretch-activated channels) in outside-out patches from adult rat astrocytes; assay: SAC activity in outside-out patches, pressure-activated, patch clamp; format: cell-based
# [8] = tested on: NMDA channel; settings: ref Bender et al. 1998; cited from earlier work
# [9] = tested on: glutamate-stimulated K^+ influx in neonatal astrocytes; settings: ref Bender et al. 1998; cited from earlier work
# [10] = tested on: voltage-sensitive whole-cell currents of astrocytes; assay: Voltage-sensitive whole-cell currents, perforated patch; format: cell-based, rat; settings: concentration not printed at place
# [11] = tested on: ICl,swell (outwardly rectifying Cl^− current), rabbit CHF ventricular myocytes; assay: Swelling-activated anion current in CHF ventricular myocytes, perforated patch; format: cell-based
# [12] = tested on: ventricular myocytes from rabbits with aortic regurgitation-induced CHF; assay: Myocyte cell volume during perforated patch voltage clamp; format: cell-based, rabbit
# [13] = tested on: whole-cell current of rabbit CHF ventricular myocytes in 1.5T hypertonic saline; format: cell-based; settings: 0.4 μM GsMTx-4, 1.5T hypertonic saline, averages from five cells
# [14] = Overall charge of the toxin; format: physicochemical; settings: from the sequence
# [15] = tested on: rabbit hearts, atrial fibrillation associated with dilatation; settings: ref Bode et al. 1999; cited from earlier work
# [16] = tested on: normal electrical activity of the heart, rabbit; settings: Langendorff-perfused rabbit hearts, preliminary; ref Bode et al. 1999; cited from earlier work
# [17] = tested on: K^+ channel; settings: Fig. 8 legend; ref Swartz and MacKinnon 1995; cited from earlier work
# [18] = tested on: E-type Ca^2+ channels; settings: Fig. 8 legend; ref Newcomb et al. 1998; cited from earlier work
# [19] = introduction, ref Hamill and McBride 1996, Sachs and Morris 1998
compound,measurement,setting,value
N=C(N)NC(=O)c1nc(Cl)c(N)nc1N [Amiloride],blocking activity against SACs,[1]; [19],low affinity blocking activity
same,affinity for epithelial Na^+ channels,[2],nanomolar affinity
same,block of endogenous SACs in oocytes,[3],blocks
same,block of SACs in audiovestibular hair cells,[4],blocks
"O=S(=O)(O)c1cc(N=C=S)ccc1C=Cc1ccc(N=C=S)cc1S(=O)(=O)O [DIDS, 4,4′-diisothiocyanatostilbene-2,2′-disulphonic acid, reference compound]",effect on swelling-activated current (in words),"[5]; 50 μM DIDS, 30 s hypotonic saline, especially at depolarized potentials, n = 6",significant reduction in current
same,reduction of swelling-activated anion current,[6],significant reduction
COc1ccc([C@@H]2Sc3ccccc3N(CCN(C)C)C(=O)[C@@H]2OC(C)=O)cc1 [Diltiazem],blocking activity against SACs,[1]; [19],low affinity blocking activity
"N[C@@H](CCC(=O)O)C(=O)O [Glutamate, reference compound]",Activity on astrocyte SACs,"[7]; 10 μM, n = 2 trials, outside-out patches at −50 mV",No activation
same,activation of SACs in unstretched patches,"[7]; 10 μM, unstretched patches that contained SACs",did not activate SACs
C[C@]12N[C@H](Cc3ccccc31)c1ccccc12 [MK801],affinity as NMDA open-channel blocker,[8],nanomolar affinity
same,effect on glutamate-stimulated K^+ influx,[9],inhibits glutamate-stimulated K^+ influx
"COC(=O)C1=C(C)NC(C)=C(C(=O)OC)C1c1ccccc1[N+](=O)[O-] [Nifedipine, reference compound]",Activity on astrocyte SACs,[7],No block
CC[N+](CC)(CC)CC [tetraethylammonium],blocking activity against SACs,[1],low affinity blocking activity
GsMTx-4,I/I0 (ratio of blocked to unblocked current),"[7]; from data of Fig. 6, outside-out patches, −50 mV",0.083
same,dissociation rate constant k d,"[7]; from washout time constant, n = 7 patches",0.21 s⁻¹
same,state dependence of block,"[7]; mechanism of action, closed channels",can act on closed channels
same,block of SACs,"[7]; outside-out patches, 1:1,000 dilution, 8 μg/ml, rapid upon superfusion",the block was complete
same,activity against voltage-sensitive whole-cell currents,[10],no effect on whole-cell voltage-sensitive currents; also recorded: did not effect voltage-sensitive currents; also recorded: negligible activity
same,effect on peak swelling-activated current (in words),"[5]; 5 μM GsMTx-4, 30 s after hypotonic exposure",significantly reduced the peak current response
same,reduction in peak swelling-activated current,"[5]; 5 μM GsMTx-4, 30 s, after subtracting resting current, representative cell (Fig. 9 C)",~75%
same,change in reversal potential of swelling-activated current,"[5]; 5 μM GsMTx-4, statistically indistinguishable from 0 mV",+2 mV
same,reduction in swelling-activated anion current,"[5]; adult astrocytes, discussion",40–50%
same,reduction in swelling-activated whole-cell current,"[5]; hypotonically swollen astrocytes, potential not printed at place",~40%
same,recovery of swelling currents after washout,[5]; ∼4 min after washout of 5 μM GsMTx-4,partially recovered
same,"effect on ICl,swell","[11]; 0.4 μM GsMTx-4, isotonic (1.0T), averages from five cells",no effect
same,effect on anion current,"[11]; rabbit dilated cardiomyopathy model, concentration not printed at place",did not affect the anion current
same,cell volume reduction,"[12]; 0.4 μM GsMTx-4, 1.0T solution, averages from five cells",7%
same,cell volume after osmotic shrinkage,"[12]; 0.4 μM GsMTx-4, 1.5T solution, averages from five cells",unaffected
same,cell volume reduction relative to that produced by 1.5T saline,"[12]; 0.4 μM GsMTx-4, isotonic",~40%
same,effect on whole-cell current,[13],unaffected; also recorded: did not affect membrane currents
same,overall charge,[14],+5
same,suppression of cardiac arrhythmias,[15],ability to suppress cardiac arrhythmias
same,effect on normal electrical activity of the heart,[16],doesn't block normal electrical activity of the heart
Hanatoxin,K^+ channel block,[17],K^+ channel blocker
"SNX-482: peptide toxin that blocks E-type Ca^2+ channels (GVDKAGCRYMFGGCSVNDDCCPRLGCHSLFSYCAWDLTFSD; UniProt P56854 1-41, looked up)",E-type Ca^2+ channel block,[18],blocks E-type Ca^2+ channels

# From paper PMC2217226 (The Journal of General Physiology, 2000)
